Results taken from US20260014192A1, “COMPOSITIONS AND USES THEREOF” (Optibiotix Limited, priority 2022, published 2026).

Key:
gut microbiome [1] = assay: pH-controlled anaerobic faecal cultures: organic acid production; type: cell-based; settings: FIG. 3C
Method: pH-controlled, anaerobic, faecal cultures were carried out to evaluate the impact of each test carbohydrate on gut microbiome composition and activity (organic acid production). The test carbohydrates were as follows: Inulin, Fructooligosaccharides (FOS), Xylooligosaccharides (XOS), gentiooligosaccharides (GeOS) and cellobiose.
(§1) All carbohydrates were tested in parallel, using the same faecal sample from a healthy donor. Fermentations were repeated using the faecal samples of each of 6 donors. Faeces in the absence of test substrate were used as the negative control in each run.

gut microbiome [2] = assay: Non pH-controlled anaerobic faecal cultures: gas production; type: cell-based; settings: 6 donors, FIG. 1A
Method: Non pH-controlled, anaerobic, faecal cultures were investigated to evaluate the rate of gas production and cumulative gas production over 24 h in the presence of each test substrate.
as §1

## O=C[C@H](O)[C@@H](O)[C@H](O[C@@H]1O[C@H](CO)[C@@H](O)[C@H](O)[C@H]1O)[C@H](O)CO [Cellobiose, cellobiose]
Gut microbiome [1]
  lactate production / accumulation: high levels
Gut microbiome [2]
  rate of gas production: significantly higher compared to all test substrates
